Where “and” joins values, the source holds several entries; their conditions need not be identical. Equal values may be shown once. Read-outs that look alike come from different tables or passages of the source.
Experiments:
[1] = neutral red assay (NRA), drug-induced cytotoxicity; type: cell-based, human; details: human
Experimental: (§1) Drug induced cytotoxicity in HFFs was measured as a reduction of cell viability determined by neutral red uptake assay (NRA), as described previously. Briefly, HFFs treated with compounds for 7 d were incubated with a final concentration of 40 μg/mL neutral red (Sigma Aldrich, St. Louis, MO, USA) for 3 h. Incorporated neutral red was released from the cells by incubation with destaining solution (50% ethanol, 49% H2O, 1% acetic acid) and subsequently quantitated in a microplate reader (PerkinElmer, Waltham, MA, USA) by fluorescence measurement using 560/630 nm for excitation/emission, respectively.

[2] = tested on: mock-infected primary human foreskin fibroblasts (HFFs); assay: neutral red assay (NRA), drug-induced cytotoxicity; type: cell-based; details: single treatment; mock-infected HFFs, 7 d; mean ± SD
Experimental: as §1

[3] = tested on: HCMV AD169-GFP; details: for SI: selectivity index CC50/EC50
Experimental: (§2) Primary human foreskin fibroblasts (HFFs, derived from clinical samples, Children’s Hospital, Erlangen, Germany) were grown in Eagle’s minimal essential medium (MEM) supplemented with 1 × GlutaMAX^TM (both Thermo Fisher Scientific, Waltham, MA, USA), 10 μg/mL gentamicin and 10% fetal bovine serum (FBS, Capricorn, Ebsdorfergrund, Germany). […] Cultured cells were maintained at 37 °C, 5% CO2 and 80% humidity. All cell culture was regularly monitored for absence of mycoplasma contamination (Lonza™ Mycoalert™, Thermo Fisher Scientific, Waltham, MA, USA). Recombinant HCMV AD169 expressing green fluorescent protein (AD169-GFP, [61]) and recombinant ORF-UL97-deleted HCMV AD169 expressing green fluorescent protein (ΔUL97-GFP BAC213 [48]) were used for in vitro replication assays.
(§3) Loewe additivity was assessed using an adapted protocol of the HCMV GFP-based replication assay [21, 61] described previously [1]. HFFs were seeded at app. 1.6 × 10^5 cells/well in 12-well culture plates (four plates per assay) and infected on the following day with HCMV AD169-GFP [61] in a dilution resulting in 25% GFP-positive cells at 7 d p.i. (i.e., 1× TCID25^7d). […] Standard protocol comprised a serial dilution of six concentrations/single compound, starting with app. 4–8 × EC50, and a 1:2 serial dilution of eight concentrations of the combination, starting with a combination of half of the highest concentrations of both single dilution series. All infections were performed in biological duplicates. Cells were lysed by the addition of 200 µL lysis buffer/well 7 d p.i., and cell suspensions were mixed and transferred to a 96-well plate. Centrifugation was performed at 3000 rpm for 15 min and clear lysates were subjected to automated GFP quantitation in a Victor X4 microplate reader (PerkinElmer, Waltham, MA, USA). Antiviral efficacy (mean of duplicate measurement of biological duplicates) was expressed as the percentage of solvent control and entered into the CompuSyn software (Version 1.0 [65]; ComboSyn, Inc., Paramus, NJ, USA). Only experiments with an r value > 0.90 and EC50 values close to previously determined concentrations were accepted.

[4] = tested on: HCMV AD169-GFP; assay: microbe, parasite or virus in culture
Experimental: as §2, §3

[5] = tested on: HCMV AD169-GFP; assay: Loewe additivity fixed-dose assay
Experimental: as §3

[6] = tested on: HCMV ΔUL97-GFP BAC213; assay: GFP replication assay with deletion mutant
Experimental: Primary human foreskin fibroblasts (HFFs, derived from clinical samples, Children’s Hospital, Erlangen, Germany) were grown in Eagle’s minimal essential medium (MEM) supplemented with 1 × GlutaMAX^TM (both Thermo Fisher Scientific, Waltham, MA, USA), 10 μg/mL gentamicin and 10% fetal bovine serum (FBS, Capricorn, Ebsdorfergrund, Germany). […] Cultured cells were maintained at 37 °C, 5% CO2 and 80% humidity. All cell culture was regularly monitored for absence of mycoplasma contamination (Lonza™ Mycoalert™, Thermo Fisher Scientific, Waltham, MA, USA). […]
Loewe additivity was assessed using an adapted protocol of the HCMV GFP-based replication assay [21, 61] described previously [1]. […] Centrifugation was performed at 3000 rpm for 15 min and clear lysates were subjected to automated GFP quantitation in a Victor X4 microplate reader (PerkinElmer, Waltham, MA, USA). Antiviral efficacy (mean of duplicate measurement of biological duplicates) was expressed as the percentage of solvent control and entered into the CompuSyn software (Version 1.0 [65]; ComboSyn, Inc., Paramus, NJ, USA). Only experiments with an r value > 0.90 and EC50 values close to previously determined concentrations were accepted.

[7] = tested on: HCMV AD169-GFP; assay: antiviral drug treatment in wild-type HFFs; details: WT HFFs
Experimental: (§4) To achieve a transient knock-out of cyclin H, app. 1.5 × 10^5 HFFs/well were grown in 12-well culture plates and, starting the following day, incubated for 24 h with 0.5 mL of lentiviral supernatant (a mixture containing all six gRNAs described in 4.9) supplemented with 0.5 mL MEM and 7.5 µg/mL polybrene (Sigma Aldrich, St. Louis, MO, USA) per well. Virus supernatant was replaced by fresh media 24 h later and cells were used for infection experiments (see 4.5 and 4.6) on the following day.
(§5) 12-well culture plates and treated with lentiviral supernatants to achieve a CRISPR/C as9 -media ted
(§6) transient cyclin H knock-down. Subsequently, cells were dir ectly infected with HCMV AD169-GF P for
(§7) 90 min , then fresh medium, supplemented with indicated concentrations of compounds, was added. Cells
(§8) were harvested and lysed 7 d pos t-infection and vira l GFP reporter signa ls were measured in
(§9) quadruplicate. Data are presented as mean values of biological duplicates, adjusted in percent to the
(§10) respective solvent DMSO c on t r ol (ctrl ).

[8] = tested on: HCMV AD169-GFP; assay: antiviral drug treatment in cyclin H knock-out HFFs; details: CycH KO HFFs
Experimental: as §4, §5, §6, §7, §8, §9, §10

[9] = tested on: HCMV AD169-GFP; assay: confocal quantitation of GFP reporter signal in HFFs; details: MBV 10 µM, LDC4297 0.1 µM, R25 1 µM, abemaciclib 1 µM; untreated infected = 100%, mock = 0%
[10] = tested on: CDK7; assay: confocal immunofluorescence quantitation of CDK7 signal in HFFs; details: HCMV AD169-GFP-infected HFFs, 7 d; MBV 10 µM, LDC4297 0.1 µM, R25 1 µM, abemaciclib 1 µM; untreated mock-infected = 100%; mean ± SEM
[11] = mock-infected primary human foreskin fibroblasts (HFFs), single treatment, mock-infected HFFs, 7 d, mean ± SD, read-out: CC50
[12] = Human betaherpesvirus 5, AD169, single treatment, HCMV AD169-GFP in HFFs, mean ± SD

CC[C@H](Nc1nc(NCc2cnc(C)cc2C)c2ncn(C(C)C)c2n1)[C@@H](C)O [CYC065]
CC50 at 7 d [1, 11]: < 100 nM

SY1365
CC50 [2]: < 100 nM

Cc1c(Br)c(Br)c2c3c1nc(N1CCNCC1)n3CCC2 [SEL120]
CC50 at 7 d [1, 11]: 5900 ± 3850 nM | SI ([3]; single treatment): 75 | EC50 [4, 12]: 79 ± 1 nM

CVT-313
CC50 [2]: 5570 ± 50 nM

CCc1cnn2c(NCc3ccc[n+]([O-])c3)cc(N3CCCC[C@H]3CCO)nc12 [dinaciclib]
CC50 at 7 d [1]: < 100 nM

CC(=O)N[C@@H]1CCC[C@H](C(=O)Nc2cc(-c3cnn4c3CC(C)(C)C4)c(Cl)cn2)C1 [AZD4573]
CC50 at 7 d [1, 11]: 350 ± 90 nM

CN1CCC(c2c(O)cc(O)c3c(=O)cc(-c4ccccc4Cl)oc23)C1CO (stereo not shown) [riviciclib]
CC50 at 7 d [1, 11]: 1600 ± 60 nM

CC(C)(C)c1cnc(CSc2cnc(NC(=O)C3CCN(CC(=O)NCCOCCOCCOCCNc4cccc5c4C(=O)N(C4CCC(=O)NC4=O)C5=O)CC3)s2)o1 (stereo not shown) [THAL-SNS032]
CC50 at 7 d [1, 11]: 140 ± 60 nM | SI ([3]; single treatment): 6 | EC50 [4, 12]: 25 ± 2 nM

CC(C)c1cnn2c(NCc3ccccc3-n3cccn3)nc(OC3CCCNC3)nc12 (stereo not shown) [LDC4297]
CC50 [2]: > 10000 nM | EC50 ([3]; parental HCMV AD169-GFP, in parallel with ΔUL97 mutant (Figure 5A)): 16 ± 5 nM | SI ([3]; single treatment): >1000 | EC50 ([3]; single treatment, HCMV AD169-GFP in HFFs, mean ± SD): 9 ± 2 nM | EC50 ([5]; read-out: EC50 single drugs, single drug, run beside the combination of the same table section): 13 nM and 9 nM and 16 nM | EC90 ([5]; read-out: EC90 single drugs, single drug, run beside the combination of the same table section): 97 nM and 147 nM and 88 nM and 124 nM | EC50 ([6]; deletion mutant ΔUL97 BAC213 (Figure 5B)): 61 ± 8 nM | mean replication (in % solvent control) ([7]; 0.003 µM): 91% | mean replication (in % solvent control) ([7]; 0.025 µM): 23% | mean replication (in % solvent control) ([7]; 0.1 µM): 7% | mean replication (in % solvent control) ([8]; 0.003 µM): 85% | mean replication (in % solvent control) ([8]; 0.025 µM): 32% | mean replication (in % solvent control) ([8]; 0.1 µM): 4% | HCMV AD169-GFP-specific reporter signal (GFP intensity) [9]: below 25% | CDK7 intensity [10]: 172% ± 7%

CC(C)c1cnn2c(NCc3ccccc3)cc(NC[C@H]3CCNC[C@@H]3O)nc12 [samuraciclib]
CC50 at 7 d ([1]; single treatment, mock-infected HFFs, 7 d, mean ± SD, read-out: CC50): 500 ± 210 nM

CC(C)Nc1nc2cc(Cl)c(Cl)cc2n1[C@H]1O[C@@H](CO)[C@H](O)[C@@H]1O [MBV, maribavir]
CC50 at 7 d [1, 11]: > 100000 nM | SI ([3]; single treatment): >250 | EC50 ([4]; Human betaherpesvirus 5, AD169, parental HCMV AD169-GFP, in parallel with ΔUL97 mutant (Figure 5A)): 220 ± 260 nM | EC50 [4, 12]: 350 ± 420 nM | EC50 ([6]; Human betaherpesvirus 5): > 20000 nM | mean replication (in % solvent control) ([7]; 0.31 µM): 20% | mean replication (in % solvent control) ([7]; 2.5 µM): 6% | mean replication (in % solvent control) ([7]; 10 µM): 3% | mean replication (in % solvent control) ([8]; 0.31 µM): 21% | mean replication (in % solvent control) ([8]; 2.5 µM): 9% | mean replication (in % solvent control) ([8]; 10 µM): 6% | HCMV AD169-GFP-specific reporter signal (GFP intensity) [9]: below 25%

Source: publication PMC8910733, “Cyclin-Dependent Kinases (CDKs) and the Human Cytomegalovirus-Encoded CDK Ortholog pUL97 Represent Highly Attractive Targets for Synergistic Drug Combinations” (International Journal of Molecular Sciences, 2022)
